Laboratory results: ChEMBL document CHEMBL1201862, “PubChem BioAssay data set” (2004)
The source made the active and inactive calls.

Tests used:
[1] = test system: Escherichia coli; assay: microbe, parasite or virus in culture
[2] = NIH-3T3 fibroblast cytotoxicity, dose response, cytotoxicity control, cell-based, fluorescence, Alamar Blue, secondary assay (AID 2327); type: functional;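 further: NIH-3T3 mouse fibroblasts cultured with fluconazole at 8 µg/mL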
[3] = C. albicans growth with fluconazole, confirmation, fluorescence, retest (AID 2467); type: functional, cell-based
[4] = molecular target: T1, Serine/threonine-protein phosphatase (Candida dubliniensis (strain CD36 / CBS 7987 / NCPF 3949 / NRRLY-17841) (Yeast), UniProt B9W6M3); assay: calcineurin pathway inhibitors in yeast reporter, dose response, S. cerevisiae, CDRE-lacZ, luminescence, secondary (AID 2388); type: functional, cell-based;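 further: yeast reporter cells carrying a calcineurin-responsive lacZ construct stimulated with calcium chloride; luminescent beta-galactosidase reporter signal in whole cells rather than isolated phosphatase activity; potency for inhibition where a drop in reporter signal means calcineurin blockade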
T1 sequence (B9W6M3 whole entry): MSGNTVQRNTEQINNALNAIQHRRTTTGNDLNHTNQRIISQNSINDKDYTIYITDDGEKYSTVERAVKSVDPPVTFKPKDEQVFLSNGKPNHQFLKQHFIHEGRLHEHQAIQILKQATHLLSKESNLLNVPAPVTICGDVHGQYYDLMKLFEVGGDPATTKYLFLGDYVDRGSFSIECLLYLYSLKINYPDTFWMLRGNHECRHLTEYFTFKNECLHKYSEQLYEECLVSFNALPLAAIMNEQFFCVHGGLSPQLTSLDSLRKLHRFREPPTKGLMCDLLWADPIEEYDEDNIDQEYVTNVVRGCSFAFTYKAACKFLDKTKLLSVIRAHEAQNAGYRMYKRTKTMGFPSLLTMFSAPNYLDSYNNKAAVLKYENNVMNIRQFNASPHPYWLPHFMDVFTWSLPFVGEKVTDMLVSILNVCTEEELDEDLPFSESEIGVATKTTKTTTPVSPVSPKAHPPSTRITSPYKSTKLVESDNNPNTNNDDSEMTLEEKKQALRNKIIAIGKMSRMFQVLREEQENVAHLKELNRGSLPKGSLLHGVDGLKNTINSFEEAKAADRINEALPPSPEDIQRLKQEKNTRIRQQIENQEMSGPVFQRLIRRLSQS

[5] = molecular target: ATP-dependent molecular chaperone HSP82 (Candida albicans (strain WO-1) (Yeast), UniProt C4YTQ8); assay: loss of DOC-induced GRE-beta-galactosidase reporter signal, dose response, Hsp90 inhibitor project, S. cerevisiae, luminescence (AID 2400); type: functional, cell-based;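 further: beta-galactosidase luminescence from glucocorticoid response element reporter as proxy for Hsp90 function; inhibitor potency where signal loss means Hsp90 inhibition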
[6] = insulin promoter down-regulators in MIN6 cells, imaging, high-content screening, mouse beta cells (AID 1628); type: functional
[7] = cytotoxicity in MIN6 insulinoma cells, dose response, cytotoxicity control, cell-based, mouse insulinoma (AID 2122); type: functional;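 further: confirmatory high-throughput counterscreen run to flag cytotoxic compounds; mouse MIN-6 beta cells carrying an insulin promoter eGFP reporter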
[8] = miR-122 activators in hepatoma reporter cells, dose response, cell-based, Huh7 psiCHECK-miR122, Renilla luciferase, cherry-picked (AID 651956); type: functional;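 further: huh7 hepatoma cells stably carrying a psiCHECK-2 miR-122 sensor plasmid; renilla luciferase signal reporting endogenous miR-122 activity after 48 h compound exposure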
[9] = HEK293T cytotoxicity, dose response, cytotoxicity control for miR-122 modulator project, cell-based, inhibitor set, cherry-pick, set 2 (AID 720697); type: functional
[10] = test system: HEK293; assay: NOD1 signaling inhibitors, primary screen, cell-based, luminescence, uHTS (AID 1578); type: functional; settings: Homo sapiens
[11] = test system: Streptococcus sp. 'group A'; assay: growth inhibition of control SK(-) GAS strain, dose response, counter-screen for streptokinase expression inhibitor project, luminescence, kanamycin, BacTiterGlo, confirmation (AID 1900); type: functional, organism-based
[12] = test system: BJ; assay: cytotoxicity toward BJ-TERT fibroblasts, dose response, cell-based, RAS-independent, luminescence (AID 1933); type: functional; settings: Homo sapiens
[13] = test system: HEK293; assay: cells; type: functional, cell-based; settings: Homo sapiens
[14] = test system: BJ; assay: cells; type: functional, cell-based; settings: Homo sapiens
[15] = test system: HEK293; assay: cells; type: functional, cell-based; settings: Homo sapiens; remark: listed apart in the source
[16] = molecular target: Nucleotide-binding oligomerization domain-containing protein 2 (Homo sapiens, UniProt Q9HC29); assay: NOD2 signaling inhibitors, cell-based, luminescence, uHTS, HEK293 (AID 1566); type: functional
[17] = test system: HEK293; assay: NOD2 signaling inhibitors in MDP-stimulated cells, cell-based, uHTS, luminescence (AID 2001); type: functional; settings: Homo sapiens
[18] = test system: HEK293; assay: cells; type: functional, cell-based; settings: Homo sapiens; remark: listed apart in the source
[19] = molecular target: T2, Kappa-type opioid receptor (Homo sapiens, UniProt P41145); type: functional
[20] = molecular target: Beta-galactosidase (Escherichia coli, UniProt Q8VNN2); type: functional
[21] = test system: BJ; assay: cytotoxicity toward BJ-TERT-LT-ST fibroblasts, dose response, cell-based, RAS-independent, luminescence (AID 1935); type: functional; settings: Homo sapiens;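 further: BJ fibroblasts immortalized with TERT plus LT and ST oncogenes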
[22] = molecular target: T2, Kappa-type opioid receptor; type: functional; remark: listed apart in the source
[23] = cytotoxicity toward DRD oncogenic fibroblasts, dose response, cell-based, non-viral oncogenic, luminescence (AID 1934); type: functional; settings: Homo sapiens
[24] = test system: Streptococcus; assay: Group A Streptococcus viability loss, dose response, counter-screen for streptokinase expression inhibitor project, luminescence, BacTiterGlo (AID 1915); type: functional, organism-based;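 further: potency for reduction of bacterial viability or growth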
[25] = molecular target: Heat shock protein HSP 90-alpha (Homo sapiens, UniProt P07900); type: functional, organism-based
[26] = test system: INS1; assay: beta cell apoptosis inhibitors, cytokine rescue, dose response, luminescence, retest (AID 449756); type: functional, cell-based; settings: Rattus norvegicus;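 further: cell death triggered by IL-1 beta plus TNF-alpha plus IFN-gamma mixture; protective hits raise ATP signal compared with cytokine alone wells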
[27] = cytotoxicity in HEK-293T cells, dose response, cytotoxicity control for TCR NF-kB inhibitor project, luminescence, T-cell screen hits (AID 489026); type: functional, cell-based;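 further: cells exposed to compound about 14 hours before the viability readout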
[28] = molecular target: T3, COUP transcription factor 2 (Homo sapiens, UniProt P24468); assay: Luminescence-based cell-based high throughput dose response assay to identify inhibitors of COUP-TFII (NR2F2).; type: functional;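 further: HEK293 cells transiently cotransfected with COUP-TFII expression vector and reporter; luciferase reporter luminescence driven by COUP-TFII from the pX2-168 reporter plasmid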
T3 sequence (P24468 whole entry): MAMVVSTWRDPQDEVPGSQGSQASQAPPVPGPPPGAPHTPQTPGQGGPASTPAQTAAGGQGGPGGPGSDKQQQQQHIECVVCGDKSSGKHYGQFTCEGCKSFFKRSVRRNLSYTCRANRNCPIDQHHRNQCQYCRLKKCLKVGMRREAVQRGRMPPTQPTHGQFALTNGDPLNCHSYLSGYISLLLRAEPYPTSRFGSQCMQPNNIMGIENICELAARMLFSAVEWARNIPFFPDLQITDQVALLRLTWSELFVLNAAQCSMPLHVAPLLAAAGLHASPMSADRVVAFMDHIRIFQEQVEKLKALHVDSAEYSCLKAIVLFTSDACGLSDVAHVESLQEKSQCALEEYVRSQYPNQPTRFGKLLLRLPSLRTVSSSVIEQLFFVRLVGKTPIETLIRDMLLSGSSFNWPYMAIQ

[29] = molecular target: T4, RNA-binding protein pos-1 (Caenorhabditis elegans, UniProt G5EF15); assay: inhibitors of POS-1/mex-3 RNA binding, dose response, biochemical, fluorescence polarization (AID 1964);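 further: purified POS-1 fused to maltose binding protein made in E. coli; potency of compounds blocking POS-1 binding to fluorescent RNA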
T4 sequence (G5EF15 whole entry): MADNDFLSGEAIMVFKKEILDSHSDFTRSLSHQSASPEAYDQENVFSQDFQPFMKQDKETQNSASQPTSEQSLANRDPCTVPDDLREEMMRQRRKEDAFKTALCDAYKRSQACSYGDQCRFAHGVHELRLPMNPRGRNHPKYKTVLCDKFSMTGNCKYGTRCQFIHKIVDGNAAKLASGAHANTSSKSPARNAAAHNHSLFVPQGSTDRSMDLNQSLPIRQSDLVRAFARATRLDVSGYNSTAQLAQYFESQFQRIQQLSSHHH

[30] = molecular target: T5, Zinc finger protein mex-5 (Caenorhabditis elegans, UniProt Q9XUB2); assay: MEX-5/TCR-2 RNA interaction inhibitors, dose response, biochemical, C. elegans, fluorescence polarization (AID 1960)
T5 sequence (Q9XUB2 whole entry): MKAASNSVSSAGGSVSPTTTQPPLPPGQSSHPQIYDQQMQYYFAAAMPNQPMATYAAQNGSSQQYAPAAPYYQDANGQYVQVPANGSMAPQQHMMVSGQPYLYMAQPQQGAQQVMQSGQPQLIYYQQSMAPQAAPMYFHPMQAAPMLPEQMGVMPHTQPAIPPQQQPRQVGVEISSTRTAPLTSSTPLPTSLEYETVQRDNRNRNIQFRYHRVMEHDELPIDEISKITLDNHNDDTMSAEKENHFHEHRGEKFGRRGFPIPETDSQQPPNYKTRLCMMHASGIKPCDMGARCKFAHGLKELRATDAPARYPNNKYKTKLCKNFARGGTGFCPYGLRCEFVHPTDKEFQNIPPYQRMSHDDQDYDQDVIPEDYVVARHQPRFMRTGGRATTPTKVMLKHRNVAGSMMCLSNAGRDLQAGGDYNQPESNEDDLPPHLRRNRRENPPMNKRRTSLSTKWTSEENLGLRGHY

[31] = molecular target: DNA dC->dU-editing enzyme APOBEC-3A (Homo sapiens, UniProt P31941); assay: Dose Response confirmation of small molecule APOBEC3A DNA Deaminase Inhibitors via a fluorescence-based single-stranded DNA deaminase assay. [Related pubchem assays (depositor defined):AID493011, AID493024]; type: functional
[32] = molecular target: DNA dC->dU-editing enzyme APOBEC-3G (Homo sapiens, UniProt Q9HC16); type: functional;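 further: Dose-response counterscreen measuring inhibition of APOBEC3G DNA deaminase activity, run while confirming APOBEC3A inhibitors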
[33] = molecular target: SWI/SNF-related matrix-associated actin-dependent regulator of chromatin subfamily A member 2 (Homo sapiens, UniProt P51531); assay: Luminescence-based cell-based high throughput dose response assay to identify activators of the function of SWI/SNF related, matrix associated, actin dependent regulator of chromatin, subfamily a, member 2 (SMARCA2, BRM).; type: functional
[34] = Counterscreen for activators of the function of SWI/SNF related, matrix associated, actin dependent regulator of chromatin, subfamily a, member 2 (SMARCA2, BRM): Luminescence-based cell-based high throughput dose response assay to identify non-selective compounds using the VP16 reporter assay.; type: functional

T2 sequence (P41145 whole entry): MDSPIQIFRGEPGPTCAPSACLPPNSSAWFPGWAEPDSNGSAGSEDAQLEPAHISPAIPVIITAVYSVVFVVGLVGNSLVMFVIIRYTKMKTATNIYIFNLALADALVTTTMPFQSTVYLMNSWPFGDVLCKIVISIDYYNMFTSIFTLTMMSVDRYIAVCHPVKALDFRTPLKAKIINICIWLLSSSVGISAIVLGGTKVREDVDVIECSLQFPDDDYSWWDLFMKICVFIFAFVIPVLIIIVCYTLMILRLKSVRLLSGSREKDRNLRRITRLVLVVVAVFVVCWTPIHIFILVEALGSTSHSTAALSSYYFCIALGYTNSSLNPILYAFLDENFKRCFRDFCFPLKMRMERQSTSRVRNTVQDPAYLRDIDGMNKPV
Chain of ATP-dependent molecular chaperone HSP82 (C4YTQ8 whole entry): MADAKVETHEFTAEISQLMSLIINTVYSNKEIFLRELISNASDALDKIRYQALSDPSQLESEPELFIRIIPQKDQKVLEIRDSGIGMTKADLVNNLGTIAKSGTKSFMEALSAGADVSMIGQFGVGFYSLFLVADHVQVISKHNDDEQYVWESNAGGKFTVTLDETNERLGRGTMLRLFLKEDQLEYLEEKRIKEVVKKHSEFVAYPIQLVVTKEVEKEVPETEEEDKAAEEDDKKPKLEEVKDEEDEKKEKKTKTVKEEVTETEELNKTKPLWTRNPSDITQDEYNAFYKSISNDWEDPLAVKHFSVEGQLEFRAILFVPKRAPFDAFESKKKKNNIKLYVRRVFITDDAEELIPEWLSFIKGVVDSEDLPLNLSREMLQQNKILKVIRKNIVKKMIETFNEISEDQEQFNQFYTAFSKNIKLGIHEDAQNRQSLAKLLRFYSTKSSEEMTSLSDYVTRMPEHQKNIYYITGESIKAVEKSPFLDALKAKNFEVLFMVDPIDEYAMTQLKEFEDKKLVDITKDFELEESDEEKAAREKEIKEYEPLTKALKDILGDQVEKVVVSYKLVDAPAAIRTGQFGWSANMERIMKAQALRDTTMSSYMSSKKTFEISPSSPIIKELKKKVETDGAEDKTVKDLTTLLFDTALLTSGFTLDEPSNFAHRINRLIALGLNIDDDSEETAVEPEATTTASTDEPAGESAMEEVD
Chain of SWI/SNF-related matrix-associated actin-dependent regulator of chromatin subfamily A member 2 (P51531 whole entry): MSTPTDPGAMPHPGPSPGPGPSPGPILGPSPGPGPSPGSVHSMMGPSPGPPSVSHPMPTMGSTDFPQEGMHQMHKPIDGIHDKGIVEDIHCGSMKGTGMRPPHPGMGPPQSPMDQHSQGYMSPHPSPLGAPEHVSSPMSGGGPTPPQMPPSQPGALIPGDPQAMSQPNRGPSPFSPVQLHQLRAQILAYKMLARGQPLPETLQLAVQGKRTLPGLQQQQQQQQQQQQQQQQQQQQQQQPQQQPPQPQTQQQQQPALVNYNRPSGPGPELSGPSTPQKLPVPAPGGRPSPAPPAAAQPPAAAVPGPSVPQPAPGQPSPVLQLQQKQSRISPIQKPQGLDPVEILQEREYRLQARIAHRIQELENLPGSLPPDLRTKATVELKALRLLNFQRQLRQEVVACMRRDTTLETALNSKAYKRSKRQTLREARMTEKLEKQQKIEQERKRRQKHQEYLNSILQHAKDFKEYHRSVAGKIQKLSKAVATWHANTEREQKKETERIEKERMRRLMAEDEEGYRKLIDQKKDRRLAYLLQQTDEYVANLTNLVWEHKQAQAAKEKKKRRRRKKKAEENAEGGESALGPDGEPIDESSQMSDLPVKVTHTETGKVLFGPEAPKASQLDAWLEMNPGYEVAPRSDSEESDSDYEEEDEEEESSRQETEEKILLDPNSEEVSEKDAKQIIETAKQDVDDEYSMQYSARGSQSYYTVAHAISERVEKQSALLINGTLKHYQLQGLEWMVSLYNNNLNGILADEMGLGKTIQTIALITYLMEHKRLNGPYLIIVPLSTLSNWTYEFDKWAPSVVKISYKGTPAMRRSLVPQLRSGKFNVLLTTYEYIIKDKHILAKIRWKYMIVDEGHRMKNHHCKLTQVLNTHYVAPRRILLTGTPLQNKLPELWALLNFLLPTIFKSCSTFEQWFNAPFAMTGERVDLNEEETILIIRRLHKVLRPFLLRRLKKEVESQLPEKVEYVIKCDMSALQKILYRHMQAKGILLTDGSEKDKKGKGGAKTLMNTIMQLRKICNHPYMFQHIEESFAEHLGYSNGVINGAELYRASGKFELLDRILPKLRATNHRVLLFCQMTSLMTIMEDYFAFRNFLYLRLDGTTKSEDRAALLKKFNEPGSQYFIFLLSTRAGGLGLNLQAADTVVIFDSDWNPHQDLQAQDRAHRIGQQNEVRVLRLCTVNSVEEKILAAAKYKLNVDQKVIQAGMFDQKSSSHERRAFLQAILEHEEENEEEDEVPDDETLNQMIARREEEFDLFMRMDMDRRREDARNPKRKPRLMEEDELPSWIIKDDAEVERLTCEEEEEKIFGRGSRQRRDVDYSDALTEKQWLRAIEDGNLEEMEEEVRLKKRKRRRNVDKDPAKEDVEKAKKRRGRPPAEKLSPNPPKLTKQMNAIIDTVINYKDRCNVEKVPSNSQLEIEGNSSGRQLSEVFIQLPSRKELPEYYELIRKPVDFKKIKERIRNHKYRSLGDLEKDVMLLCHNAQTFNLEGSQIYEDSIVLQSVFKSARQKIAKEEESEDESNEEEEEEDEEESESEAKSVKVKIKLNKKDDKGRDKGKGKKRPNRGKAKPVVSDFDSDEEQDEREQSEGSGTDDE
Chain of DNA dC->dU-editing enzyme APOBEC-3G (Q9HC16 whole entry): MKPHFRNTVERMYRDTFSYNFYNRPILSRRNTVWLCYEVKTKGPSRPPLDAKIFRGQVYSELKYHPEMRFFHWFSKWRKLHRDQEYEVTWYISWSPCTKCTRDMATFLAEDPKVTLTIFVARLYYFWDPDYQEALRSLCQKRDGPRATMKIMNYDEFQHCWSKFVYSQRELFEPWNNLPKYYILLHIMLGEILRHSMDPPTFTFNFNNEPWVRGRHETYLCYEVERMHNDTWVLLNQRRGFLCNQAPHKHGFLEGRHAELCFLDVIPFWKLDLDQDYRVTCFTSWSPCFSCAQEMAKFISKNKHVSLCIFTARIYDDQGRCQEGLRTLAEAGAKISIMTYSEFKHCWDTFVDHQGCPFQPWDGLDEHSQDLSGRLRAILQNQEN
Chain of DNA dC->dU-editing enzyme APOBEC-3A (P31941 whole entry): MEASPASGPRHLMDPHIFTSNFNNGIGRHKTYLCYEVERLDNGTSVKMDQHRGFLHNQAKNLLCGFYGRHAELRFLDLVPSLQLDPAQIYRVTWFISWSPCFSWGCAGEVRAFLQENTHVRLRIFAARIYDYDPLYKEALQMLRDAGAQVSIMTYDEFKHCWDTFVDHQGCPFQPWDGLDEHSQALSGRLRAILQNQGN
Chain of Beta-galactosidase (Q8VNN2 whole entry): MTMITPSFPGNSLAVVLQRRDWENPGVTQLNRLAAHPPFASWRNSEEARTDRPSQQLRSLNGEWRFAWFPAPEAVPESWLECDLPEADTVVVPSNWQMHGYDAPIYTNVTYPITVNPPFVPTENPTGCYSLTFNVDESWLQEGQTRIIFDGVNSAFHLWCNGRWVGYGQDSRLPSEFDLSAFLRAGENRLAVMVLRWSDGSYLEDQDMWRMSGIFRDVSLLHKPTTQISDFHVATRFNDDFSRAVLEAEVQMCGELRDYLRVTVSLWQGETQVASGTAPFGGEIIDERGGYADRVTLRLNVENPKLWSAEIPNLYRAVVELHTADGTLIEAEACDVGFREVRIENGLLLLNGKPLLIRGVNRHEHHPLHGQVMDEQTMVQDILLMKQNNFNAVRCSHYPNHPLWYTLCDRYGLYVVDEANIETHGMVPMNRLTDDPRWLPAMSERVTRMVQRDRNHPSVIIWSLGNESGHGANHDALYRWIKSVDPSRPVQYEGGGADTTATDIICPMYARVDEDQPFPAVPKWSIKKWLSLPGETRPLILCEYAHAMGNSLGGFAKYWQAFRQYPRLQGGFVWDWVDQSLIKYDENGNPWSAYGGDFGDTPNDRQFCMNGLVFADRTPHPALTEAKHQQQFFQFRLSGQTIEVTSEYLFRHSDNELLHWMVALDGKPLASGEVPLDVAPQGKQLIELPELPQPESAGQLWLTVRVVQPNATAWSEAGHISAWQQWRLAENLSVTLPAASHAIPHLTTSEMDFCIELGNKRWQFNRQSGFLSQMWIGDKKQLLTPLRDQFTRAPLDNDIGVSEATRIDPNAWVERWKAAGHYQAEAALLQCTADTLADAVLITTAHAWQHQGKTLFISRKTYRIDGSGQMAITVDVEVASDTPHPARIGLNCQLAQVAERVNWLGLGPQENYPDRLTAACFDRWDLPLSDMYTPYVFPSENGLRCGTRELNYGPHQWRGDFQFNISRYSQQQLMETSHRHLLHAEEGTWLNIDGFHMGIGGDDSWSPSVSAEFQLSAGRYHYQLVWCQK

Structure (SMILES): CCO/C(O)=C1\C(C)=NC(=S)NC1c1cc(C)sc1C (stereo not drawn)
- AC50 [1]: 147 µM (active)

Structure (SMILES): CCSc1nnc(-c2ccc(C)cc2)c2ccccc12
- EC50 [2]: 17.2 µM (active)
- EC50 [3]: 0.305 µM (active)
- EC50 [4]: 24.7 µM (active)
- EC50 [5]: 62.4 µM (active)

Structure (SMILES): COc1cc(-c2nnc3sc(C4CCCCC4)nn23)cc(OC)c1OC
- IC50 [6]: 0.981 µM (active)
- IC50 [7]: 9.75 µM (active)
- AC50 [8]: 55.5 µM (active)
- AC50 [9]: 1.08 µM (active)

Structure (SMILES): COc1cccc(N=Nc2ccc3cccnc3c2O)c1
- EC50 [2]: 87.8 µM (active)
- EC50 [10]: > 20 µM (inactive)
- EC50 [11]: 0.068 µM (active)
- EC50 [12]: 6.69 µM (inconclusive)
- IC50 [13]: 5.21 µM (active)
- EC50 [14]: 16.9 µM (inconclusive)
- EC50 [3]: 0.619 µM (active)
- IC50 [15]: > 20 µM (inactive)
- EC50 [16]: > 20 µM (inactive)
- IC50 [17]: 3.15 µM (inactive)
- IC50 [18]: > 20 µM (inactive)
- EC50 [4]: > 180 µM (inactive)
- IC50 [19]: 5.92 µM (active)
- EC50 [20]: 22 µM (active)
- EC50 [21]: 3.73 µM (inconclusive)
- IC50 [22]: > 32 µM
- EC50 [23]: 10.5 µM (active)
- EC50 [24]: 2.53 µM (active)
- AC50 [25]: 5.71 µM (active)
- AC50 [26]: 2.26 µM (active)
- EC50 [5]: 4.9 µM (active)

Structure (SMILES): COCCn1c(-c2cccc([N+](=O)[O-])c2)nc2c1c(=O)[nH]c(=O)n2Cc1ccccc1
- AC50 [1]: > 380 µM (inactive)

Structure (SMILES): Cc1nnc(C)c2c(C)n(C(C)c3ccccc3)c(C)c12 (stereo not drawn)
- IC50 [6]: 2.5 µM (active)
- IC50 [7]: 2.6 µM (active)

Structure (SMILES): CCCCn1c2c(c(=N)c3c1CCC3)CCC2
- IC50 [6]: 1.47 µM (active)
- IC50 [7]: 1.97 µM (active)
- IC50 [27]: > 80 µM (inactive)
- IC50 [28]: 19.1 µM (inactive)

Structure (SMILES): Cc1ccc(N=Nc2[nH]c3ccccc3c2O)cc1
- EC50 [29]: 16 µM (active)
- EC50 [30]: 25.7 µM (inconclusive)
- IC50 [31]: 4.8 µM (active)
- IC50 [32]: 7.69 µM (active)
- EC50 [33]: > 91.1 µM (inactive)
- EC50 [34]: > 91.1 µM (inactive)
